From patent publication US20110015371A1 (Vertex Pharmaceuticals Incorporated, priority 1994, published 2011)

Columns and labels:
[1] = biological target: T1, ICE (Homo sapiens, UniProt P29466); assay: Enzyme assay with UV-visible substrate (Succinyl-Tyr-Val-Ala-Asp-pNitroanilide); format: biochemical
T1 sequence (P29466 120-297 limits assumed): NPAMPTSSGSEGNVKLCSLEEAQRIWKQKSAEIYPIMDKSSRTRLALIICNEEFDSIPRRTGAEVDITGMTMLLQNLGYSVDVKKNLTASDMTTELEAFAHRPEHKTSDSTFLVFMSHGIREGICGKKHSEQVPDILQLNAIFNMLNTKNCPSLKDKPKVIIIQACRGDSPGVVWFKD
T1 sequence (P29466 317-404 limits assumed): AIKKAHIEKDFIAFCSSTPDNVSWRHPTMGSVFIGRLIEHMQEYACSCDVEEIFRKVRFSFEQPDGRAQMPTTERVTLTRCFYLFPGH
Experimental: 1. Enzyme Assay with UV-Visible Substrate
This assay is run using an Succinyl-Tyr-Val-Ala-Asp-pNitroanilide substrate. Synthesis of analogous substrates is described by L. A. Reiter (Int. J. Peptide Protein Res. 43, 87-96 (1994)). The assay mixture contains:
The visible ICE assay is run in a 96-well microtiter plate. Buffer, ICE and DMSO (if inhibitor is present) are added to the wells in the order listed. The components are left to incubate at room temperature for 15 minutes starting at the time that all components are present in all wells. The microtiter plate reader is set to incubate at 37° C. After the 15 minute incubation, substrate is added directly to the wells and the reaction is monitored by following the release of the chromophore (pNA) at 405-603 nm at 37° C. for 20 minutes. A linear fit of the data is performed and the rate is calculated in mOD/min. DMSO is only present during experiments involving inhibitors, buffer is used to make up the volume to 100 μl in the other experiments.
For determination of enzyme inhibition constants (Ki) or the mode of inhibition (competitive, uncompetitive or noncompetitive), the rate data determined in the enzyme assays at varying inhibitor concentrations are computer-fit to standard enzyme kinetic equations (see I. H. Segel, Enzyme Kinetics, Wiley-Interscience, 1975).

[2] = test system: Human Peripheral Blood Mononuclear Cells (PBMC) or Enriched Adherent Mononuclear Cells; assay: Cell assay: IL-1β assay with human PBMC or enriched adherent mononuclear cells; format: cell-based; settings: Homo sapiens, PBMC, LPS-stimulated cells, mature IL-1β in supernatant by ELISA
How it was run: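 Human PBMC (suspension at 6×10^6 cells/ml) or adherent monocytes enriched by 1 h plating (2.5−3.0×10^5 cells/well) were stimulated with 5 ng/ml LPS (final) plus compound (5-6 dilutions, 0.1% DMSO final) for 16-18 hr at 37° C. Mature IL-1β in supernatants quantified by ELISA; duplicate cultures, duplicate ELISAs.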

**Q.** For `CCCCc1ccc(NC(=O)CCc2ccccc2)c(=O)n1CC(=O)N[C@H](C=O)CC(=O)O` [Compound 54d, 3(S)3-(6-Butyl-1,2-dihydro-2-oxo-3-(3-phenylpropionyl)amino-1-pyridyl)acetylamino-4-oxobutanoic acid], which Ki ([1]; Example 4 table) is on record?
**A.** 1000 nM

**Q.** And the melting point?
**A.** 120 to 125 °C

**Q.** For `Cc1ccc(NC(=O)CCc2ccccc2)c(=O)n1CC(=O)N[C@H](C=O)CC(=O)O` [Compound 54e, 3(S)3-(1,2-Dihydro-6-methyl-2-oxo-3-(3-phenylpropionyl)amino-1-pyridyl)acetylamino-4-oxobutanoic acid], which Ki ([1]; Example 4 table) is on record?
**A.** 3500 nM

**Q.** What about the melting point of the same compound?
**A.** 129 to 138 °C

**Q.** With `O=C[C@H](CC(=O)O)NC(=O)[C@@H]1CCCN1C(=O)c1nc(CCc2ccccc2)c[nH]1` [Compound 21c, (3S)3{N-[4-(2-Phenylethyl)imidazole-2-carbonyl]-L-prolinyl}amino-4-oxobutanoic acid] as the compound, how does the melting point read?
**A.** 101 to 103 °C

**Q.** What does the source list for `COc1ccc(CCCc2c[nH]c(C(=O)N3CCC[C@H]3C(=O)N[C@H](C=O)CC(=O)O)n2)cc1` [Compound 21e, (3S)3-{N-[4-[3-(4-Methoxyphenyl)propyl]imidazole-2-carbonyl]-L-prolinyl}amino-4-oxobutanoic acid]?
**A.** IC50 ([2]; Example 4 table): 2900 nM; melting point: 101 to 105 °C

**Q.** What does the source list for `O=C[C@H](CC(=O)O)NC(=O)[C@@H]1CCCN1C(=O)c1nc(CCCc2ccc(O)cc2)c[nH]1` [Compound 21f, (3S)3-{N-[4-[3-(4-Hydroxyphenyl)propyl]imidazole-2-carbonyl]-L-prolinyl}amino-4-oxobutanoic acid]?
**A.** IC50 ([2]; Example 4 table): 2900 nM; melting point: 114 to 118 °C

**Q.** What does the source list for `O=C(O)C[C@H](NC(=O)[C@@H]1CCCN2C(=O)CC[C@H](NC(=O)CCc3ccccc3)C(=O)N12)C(=O)CSCc1ccccc1Cl` [Compound 125b, [3S(1S,9S)]-3-(6,10-dioxo-1,2,3,4,7,8,9,10-octahydro)-9-(3-phenylpropionyl-amino)-6H-pyridazine[1,2-a][1,2]diazepine-1-carboxamido-5-(2-chlorophenyl-methylthio)-4-oxopentanoic acid]?
**A.** Ki ([1]; Example 6 table): 60 nM; IC50 ([2]; Example 6 table): 300 nM; melting point: 76 to 80 °C

**Q.** Which results are given for `C[C@H](NC(=O)c1nc(Cc2ccccc2)c[nH]1)C(=O)N[C@H](C=O)CC(=O)O` [Compound 20b, (3S)3-[N-(4-Benzylimidazole-2-carbonyl)-L-alaninyl]amino-4-oxobutanoic acid]?
**A.** IC50 ([2]; Example 4 table): 16400 nM; melting point: 113 to 115 °C

**Q.** Which IC50 ([2]; Example 4 table) does the source give for `CC(=O)N[C@@H](Cc1ccc(O)cc1)C(=O)N[C@H](C(=O)N[C@@H](C)C(=O)N[C@H](CC(=O)O)C(=O)COCc1c(Cl)cccc1Cl)C(C)C` (mixture of isomers) [Compound 84b, (R,S)N-[N-(Acetyl)tyrosinyl-valinyl-alaninyl]-3-amino-5-(2,6-dichlorophenylmethyloxy)-4-oxo-pentanoic acid] here?
**A.** 500 nM

**Q.** And the melting point?
**A.** 165 to 168 °C

**Q.** With `O=C[C@H](CC(=O)O)NC(=O)[C@@H]1CCCN2CCC[C@H](NC(=O)CCc3ccccc3)C(=O)N12` [Compound 47b, [3S,(1S,9S)]3-(Octahydro-10-oxo-9-(3-phenylpropionylamino)-6H-pyridazino-[1,2-a][1,2]diazepine-1-carboxamido)-4-oxobutanoic acid] as the compound, how does the Ki ([1]; Example 4 table) read?
**A.** 27 nM

**Q.** What about the IC50 ([2]; Example 4 table) of the same compound?
**A.** 1800 nM

**Q.** And the melting point?
**A.** 87 to 90 °C

**Q.** For `C[C@H](NC(=O)c1ncc(CCc2ccccc2)[nH]1)C(=O)N[C@H](C=O)CC(=O)O` [Compound 20c, (3S)3-{N-[4-(2-Phenylethyl)imidazole-2-carbonyl]-L-alaninyl}amino-4-oxobutanoic acid], which melting point is on record?
**A.** 102 to 104 °C

**Q.** For `O=C(O)CC(NC(=O)Cn1c(Cc2ccccc2)ccc(NC(=O)CCc2ccccc2)c1=O)C(=O)COC(=O)c1c(Cl)cccc1Cl` (stereo not drawn) [Compound 57b, N-2-(6-Benzyl-1,2-dihydro-2-oxo-3-(3-phenylpropionyl)amino-1-pyridyl)acetyl-3-amino-5-(2,6-dichloro-benzoyloxy)-4-oxo-pentanoic acid], which IC50 ([2]; Example 6 table) is on record?
**A.** 2200 nM

**Q.** What about the melting point of the same compound?
**A.** 116 to 120 °C (dec.)

**Q.** Which IC50 ([2]; Example 4 table) does the source give for `C[C@H](NC(=O)c1ccc(Cc2ccccc2)[nH]1)C(=O)N[C@H](C=O)CC(=O)O` [Compound 36b, (3S)3-[N-(5-Benzylpyrrole-2-carbonyl)-L-alaninyl]amino-4-oxobutanoic acid] here?
**A.** 17000 nM

**Q.** And the melting point?
**A.** 109 to 112 °C

**Q.** With `CC(C)[C@H](NC(=O)OCc1ccccc1)C(=O)N[C@@H](C)C(=O)N[C@@H](CC(=O)O)C(=O)c1ncc(-c2ccccc2Cl)o1` [Compound 147] as the compound, how does the Ki ([1]; Example 6 table) read?
**A.** 260 nM

**Q.** And the IC50 ([2]; Example 6 table)?
**A.** 8500 nM

**Q.** For `CC(C)[C@H](NC(=O)OCc1ccccc1)C(=O)N[C@@H](C)C(=O)N[C@@H](CC(=O)O)C(=O)c1cocn1` [Compound 149], which Ki ([1]; Example 6 table) is on record?
**A.** 14000 nM

**Q.** What about the IC50 ([2]; Example 6 table) of the same compound?
**A.** > 30000 nM

**Q.** Which Ki ([1]; Example 6 table) does the source give for `C[C@@H](C(=O)N[C@@H](CC(=O)O)C(=O)c1ncc(-c2c(Cl)cccc2Cl)o1)n1cccc(NC(=O)CCc2ccccc2)c1=O` [Compound 129] here?
**A.** 590 nM

**Q.** What about the IC50 ([2]; Example 6 table) of the same compound?
**A.** 25000 nM

**Q.** With `CC(C)[C@H](NC(=O)OCc1ccccc1)C(=O)N[C@@H](C)C(=O)N[C@@H](CC(=O)O)C(=O)c1nccs1` [Compound 148] as the compound, how does the Ki ([1]; Example 6 table) read?
**A.** 6300 nM

**Q.** And the IC50 ([2]; Example 6 table)?
**A.** 30000 nM

**Q.** With `CC(C)[C@H](NC(=O)OCc1ccccc1)C(=O)N[C@@H](C)C(=O)N[C@@H](CC(=O)O)C(=O)c1ncc(-c2ccccc2)o1` [Compound 145] as the compound, how does the Ki ([1]; Example 6 table) read?
**A.** 340 nM

**Q.** And the IC50 ([2]; Example 6 table)?
**A.** 8500 nM

**Q.** Which Ki ([1]; Example 6 table) does the source give for `CC(=O)N[C@@H](Cc1ccc(O)cc1)C(=O)N[C@H](C(=O)N1C[C@H](Oc2ccccc2)C[C@H]1C(=O)N[C@@H](CC(=O)O)C(=O)c1ncc(-c2c(Cl)cccc2Cl)o1)C(C)C` [Compound 156] here?
**A.** 1 nM

**Q.** And the IC50 ([2]; Example 6 table)?
**A.** 2700 nM

**Q.** For `O=C[C@H](CC(=O)O)NC(=O)[C@@H]1CCCN1C(=O)c1nc(CCCc2ccccc2)c[nH]1` [Compound 21d, (3S)3-{N-[4-(3-Phenylpropyl)imidazole-2-carbonyl]-L-prolinyl}amino-4-oxo-butanoic acid], which IC50 ([2]; Example 4 table) is on record?
**A.** 4800 nM

**Q.** What about the melting point of the same compound?
**A.** 91 to 94 °C

**Q.** For `CC(C)[C@H](NC(=O)OCc1ccccc1)C(=O)N[C@@H](C)C(=O)NC(CC(=O)O)C(=O)c1ncc[nH]1` (stereo partly drawn) [Compound 151], which Ki ([1]; Example 6 table) is on record?
**A.** 13000 nM

**Q.** And the IC50 ([2]; Example 6 table)?
**A.** 30000 nM

**Q.** For `CC(=O)N[C@@H](Cc1ccc(O)cc1)C(=O)Nc1ccc(Cc2ccccc2)n(CC(=O)N[C@H](C=O)CC(=O)O)c1=O` [Compound 54i, 3(S)3-(3-(2-Acetyl-L-tyrosinyl)amino-6-benzyl-1,2-dihydro-2-oxo-1-pyridyl)acetylamino-4-oxobutanoic acid], which Ki ([1]; Example 4 table) is on record?
**A.** 54 nM

**Q.** What about the IC50 ([2]; Example 4 table) of the same compound?
**A.** 2400 nM

**Q.** Which Ki ([1]; Example 4 table) does the source give for `COc1cccc2nc(C(=O)[C@H](CC(=O)O)NC(=O)[C@H](C)NC(=O)[C@@H](NC(=O)[C@H](Cc3ccc(O)cc3)NC(C)=O)C(C)C)oc12` [Compound 69a, (3S)N-(N-Acetyl-(S)-tyrosinyl-(S)-valinyl-(S)-alaninyl)-3-amino-4-(2-(7-methoxybenzoxazolyl))-4-oxobutanoate] here?
**A.** 11 nM

**Q.** And the IC50 ([2]; Example 4 table)?
**A.** 735 nM

**Q.** For `O=C[C@H](CC(=O)O)NC(=O)[C@@H]1CCCN2C(=O)C[C@H](NC(=O)CCc3ccccc3)C(=O)N12` [Compound 132a], which Ki ([1]; Example 6 table) is on record?
**A.** 5000 nM

**Q.** What about the IC50 ([2]; Example 6 table) of the same compound?
**A.** > 30000 nM

**Q.** With `O=C[C@H](CC(=O)O)NC(=O)[C@@H]1Cc2ccccc2[C@H]2CCC[C@H](NC(=O)CCc3ccccc3)C(=O)N21` [Compound 140] as the compound, how does the Ki ([1]; Example 6 table) read?
**A.** 870 nM

**Q.** What about the IC50 ([2]; Example 6 table) of the same compound?
**A.** > 30000 nM
